Source: US20240230626A9, “METHOD FOR SCREENING POTENTIAL THERAPEUTIC AGENTS” (UNIVERSITEIT ANTWERPEN, priority 2021, published 2024)

System: hPSC21/MiaPaca2 co-culture
Assay: Co-culture of RFP-labelled MiaPaca2 cancer cells and GFP-labelled hPSC21 stellate cells, kinetic fluorescence imaging
Type: cell-based, Human
Description: Pancreatic ductal adenocarcinoma (PDAC) MiaPaca2 cancer cells were transduced with Nuclight Red lentiviral reagent to stably express RFP. Human pancreatic stellate cells 21 (hPSC21) were transduced with the Nuclight Green lentiviral reagent to stably express GFP. Both cell lines were cultures in a 2:1 hPSC21/MiaPaca2 ratio in a 384-well ultra-low attachment plate and treated with the Rho-kinase inhibitor Y-27632, an inducer of a cancer associated fibroblast (CAF) like phenotype of stellate cells (Li et al., Aging, 2020). The cells were incubated at 37° C./5CO2 in the Tecan Spark Cyto multimode plate reader with imaging capabilities and BF, red and green fluorescent images were taken every hour for 48 hours.

C[C@@H](N)[C@H]1CC[C@H](C(=O)Nc2ccncc2)CC1 [Y-27632]
morphology versus control sample (2:1 hPSC21/MiaPaca2, 384-well ultra-low attachment plate, imaged every hour for 48 hours (FIG. 7D)): activation and migration of hPSC21 towards the PDAC cancer cells | velocity of the objects inside the well (2:1 hPSC21/MiaPaca2 co-culture, imaged every hour for 48 hours (FIG. 7B)): increased | number of merges of the objects inside the well (2:1 hPSC21/MiaPaca2 co-culture, imaged every hour for 48 hours (FIG. 7C)): increased
